In the supplement of paper PMC4862054:

Tests used:
Conditions in all cases: incubation time: 72 h
[1] = system: DU-4475; assay: drug sensitivity score (DSS), CellTiter-Glo (DSS (AUC-based score)); higher = stronger drug effect (viability inhibition or cytotoxicity); extreme values may be limits of the assay
Method in brief: (§1)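 Each compound occupied 5 concentrations in 10-fold steps over its own 10,000-fold range in 384-well plates, into which breast cancer cell lines were seeded as 20 µl suspension. Following 72 h of incubation, CellTox Green fluorescence (485/520 nm) was measured, and CellTiter-Glo luminescence was measured after 10 min at room temperature. Plates were individually normalised to 0.1 % DMSO and a positive kill control. From the area under the fitted dose-response curve, a drug sensitivity score was calculated.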

[2] = system: HCC1143; assay: as above
Method in brief: as §1

[3] = system: MCF-10A; assay: normalised response (% of control), CellTiter-Glo; higher = more viable cells (100 = DMSO, 0 = benzethonium chloride kill control)
Experimental: (§2)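 DSRT, 72 h incubation, CellTox Green / CellTiter-Glo readout. Signal is normalised to DMSO and benzethonium chloride controls. Value is the normalised response at the highest dose.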

[4] = system: SK-BR-3; assay: as above
Experimental: as §2

[5] = system: MFM-223; assay: as above
Experimental: as §2

[6] = system: CAL-120; assay: as above
Experimental: as §2

[7] = system: Hs578T; assay: as above
Experimental: as §2

[8] = system: HCC1937; assay: as above
Experimental: as §2

[9] = system: CAL-148; assay: as above
Experimental: as §2

[10] = system: HDQ-P1; assay: as above
Experimental: as §2

[11] = system: DU-4475; assay: as above
Experimental: as §2

CC/C(=C(\c1ccc(O)cc1)c1ccc(OCCN(C)C)cc1)c1ccccc1 [4-hydroxytamoxifen]
drug sensitivity score [1]: 0 | drug sensitivity score [2]: 0

O=C1c2c(O)ccc(O)c2C(=O)c2c(NCCNCCO)ccc(NCCNCCO)c21 [Mitoxantrone] (1000 nM)
normalised response [3]: 74.2% | normalised response [4]: 56.2% | normalised response [5]: 100% | normalised response [6]: 91.2% | normalised response [7]: 89.4% | normalised response [8]: 87.4% | normalised response [9]: 40.4% | normalised response [10]: 85% | normalised response [11]: 49.5%

COc1ccc(-c2cc3c(C)nc(N)nc3n([C@H]3CC[C@H](OCCO)CC3)c2=O)cn1 (10000 nM)
normalised response [3]: 7.97% | normalised response [4]: 18.6% | normalised response [5]: 13% | normalised response [6]: 26.1% | normalised response [7]: 5.22% | normalised response [8]: 8.02% | normalised response [9]: 4.36% | normalised response [10]: 10.8% | normalised response [11]: 0.26%

Cc1ccc(Nc2nccc(N(C)c3ccc4c(C)n(C)nc4c3)n2)cc1S(N)(=O)=O [Pazopanib] (10000 nM)
normalised response [3]: 102% | normalised response [4]: 105% | normalised response [5]: 55.8% | normalised response [6]: 89.4% | normalised response [7]: 88.5% | normalised response [8]: 102% | normalised response [9]: 106% | normalised response [10]: 98.1% | normalised response [11]: 104%

CNC(=O)c1cc(Oc2ccc(NC(=O)Nc3ccc(Cl)c(C(F)(F)F)c3)cc2)ccn1 [Sorafenib] (1000 nM)
normalised response [3]: 118% | normalised response [4]: 96.9% | normalised response [5]: 78.6% | normalised response [6]: 112% | normalised response [7]: 96% | normalised response [8]: 102% | normalised response [9]: 113% | normalised response [10]: 99.3% | normalised response [11]: 98.3%

O=C(NC[C@H](O)CO)c1ccncc1Nc1ccc(I)cc1F [Pimasertib]
drug sensitivity score [1]: 32.3 | drug sensitivity score [2]: 0

Nc1ccccc1NC(=O)c1ccc(CNc2nccc(-c3cccnc3)n2)cc1 [Mocetinostat] (10000 nM)
normalised response [3]: 54.1% | normalised response [4]: 1.68% | normalised response [5]: 36.7% | normalised response [6]: 32% | normalised response [7]: 29% | normalised response [8]: 49.8% | normalised response [9]: 12.2% | normalised response [10]: 38.2% | normalised response [11]: 4.3%

CCCCC/C=C/C=C1/C(=O)C=C[C@@H]1C/C=C\CCCC(=O)O [15D-PGJ2]
drug sensitivity score [1]: 0 | drug sensitivity score [2]: 0

Cc1c(Cn2c(C)nc3c(C(=O)O)cc(N4CCOCC4)cc32)cccc1C(F)(F)F
drug sensitivity score [1]: 0 | drug sensitivity score [2]: 0

C[C@]12O[C@H](C[C@]1(O)CO)n1c3ccccc3c3c4c(c5c6ccccc6n2c5c31)CNC4=O [Lestaurtinib] (1000 nM)
normalised response [3]: 28.5% | normalised response [4]: 29.1% | normalised response [5]: 46.4% | normalised response [6]: 49.5% | normalised response [7]: 61.4% | normalised response [8]: 56% | normalised response [9]: 99.6% | normalised response [10]: 61.6% | normalised response [11]: 5.65%

O=C(Nc1c[nH]nc1-c1nc2ccc(CN3CCOCC3)cc2[nH]1)NC1CC1 [AT9283] (1000 nM)
normalised response [3]: 46.2% | normalised response [4]: 70.8% | normalised response [5]: 75.5% | normalised response [6]: 46.9% | normalised response [7]: 54.8% | normalised response [8]: 73.7% | normalised response [9]: 86.1% | normalised response [10]: 50.8% | normalised response [11]: 72.4%

COc1nc(N)nc2c1ncn2[C@@H]1O[C@H](CO)[C@@H](O)[C@@H]1O [Nelarabine] (10000 nM)
normalised response [3]: 86.2% | normalised response [4]: 76.6% | normalised response [5]: 89.5% | normalised response [6]: 98.6% | normalised response [7]: 90.5% | normalised response [8]: 91.7% | normalised response [9]: 78.7% | normalised response [10]: 91.6% | normalised response [11]: 97.8%

O=C(CCBr)N1CCN(C(=O)CCBr)CC1 [Pipobroman] (10000 nM)
normalised response [3]: 104% | normalised response [4]: 108% | normalised response [5]: 103% | normalised response [6]: 95.8% | normalised response [7]: 103% | normalised response [8]: 98.2% | normalised response [9]: 101% | normalised response [10]: 107% | normalised response [11]: 101%
